Patent publication US20230085307A1, “PYRIDAZINONE COMPOUND AND HERBICIDE” (NISSAN CHEMICAL CORPORATION, priority 2019, published 2023)

Key:
[1] = system: blackgrass; assay: Test Example 5: herbicidal effect by foliage application, plastic box (Table 20, symbol J); type: in vivo, blackgrass (Alopecurus myosuroides); conditions: foliage application, evaluated three weeks after application
Outline: (§1)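 Post-emergence foliar test in sterilized diluvial soil. Compound applied as water-diluted emulsion at a predetermined rate to 14-day-old plants; evaluation at three weeks.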

[2] = system: lambsquarters; assay: Test Example 4: herbicidal effect by soil treatment (Table 19, symbol O); type: in vivo, lambsquarters (Chenopodium album); conditions: amount of applied herbicide 320 g/ha
Outline: (§2)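 Scoring uses the grading scale of an earlier test, three weeks post-application. Treatment consists of spraying a diluted emulsion formulation across the surface of sterilized diluvial soil in which seeds are buried near 1.5 cm deep; boxes are kept in a greenhouse between 25° C. and 30° C.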

[3] = system: barnyard grass; assay: Test Example 3: herbicidal effect by foliage application, Wagner pot (Table 18, symbol H); type: in vivo, barnyard grass (Echinochloa crus-galli); conditions: amount of applied herbicide 320 g/ha
Outline: (§3)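 Plants were sown in alluvial soil held under 0.1–0.5 cm standing water and grown 14 days in a greenhouse at 25–30 °C. An emulsifiable formulation, water-diluted to the set dose, was then sprayed onto the foliage, and effects were scored three weeks later using previously defined criteria.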

[4] = system: persian speedwell; assay: Test Example 4: herbicidal effect by soil treatment (Table 19, symbol R); type: in vivo, Persian speedwell (Veronica persica); conditions: amount of applied herbicide 320 g/ha
Outline: as §2

[5] = system: chickweed; assay: Test Example 5: herbicidal effect by foliage application, plastic box (Table 20, symbol P); type: in vivo, common chickweed (Stellaria media); conditions: foliage application, evaluated three weeks after application
Outline: as §1

[6] = system: windgrass; assay: Test Example 5: herbicidal effect by foliage application, plastic box (Table 20, symbol L); type: in vivo, windgrass (Apera spica-venti); conditions: foliage application, evaluated three weeks after application
Outline: as §1

[7] = system: wild oat; assay: Test Example 5: herbicidal effect by foliage application, plastic box (Table 20, symbol I); type: in vivo, wild oat (Avena fatua); conditions: foliage application, evaluated three weeks after application
Outline: as §1

[8] = system: green foxtail; assay: Test Example 4: herbicidal effect by soil treatment (Table 19, symbol G); type: in vivo, green foxtail (Setaria viridis); conditions: amount of applied herbicide 320 g/ha
Outline: as §2

[9] = system: persian speedwell; assay: Test Example 5: herbicidal effect by foliage application, plastic box (Table 20, symbol R); type: in vivo, Persian speedwell (Veronica persica); conditions: foliage application, evaluated three weeks after application
Outline: as §1

[10] = system: velvetleaf; assay: Test Example 4: herbicidal effect by soil treatment (Table 19, symbol M); type: in vivo, velvetleaf (Abutilon theophrasti); conditions: amount of applied herbicide 320 g/ha
Outline: as §2

[11] = system: green foxtail; assay: Test Example 5: herbicidal effect by foliage application, plastic box (Table 20, symbol G); type: in vivo, green foxtail (Setaria viridis); conditions: foliage application, evaluated three weeks after application
Outline: as §1

[12] = system: southern crabgrass; assay: Test Example 4: herbicidal effect by soil treatment (Table 19, symbol F); type: in vivo, southern crabgrass (Digitaria ciliaris); conditions: amount of applied herbicide 320 g/ha
Outline: as §2

[13] = system: windgrass; assay: Test Example 4: herbicidal effect by soil treatment (Table 19, symbol L); type: in vivo, windgrass (Apera spica-venti); conditions: amount of applied herbicide 320 g/ha
Outline: as §2

[14] = system: barnyard grass; assay: Test Example 4: herbicidal effect by soil treatment (Table 19, symbol H); type: in vivo, barnyard grass (Echinochloa crus-galli); conditions: amount of applied herbicide 320 g/ha
Outline: as §2

[15] = system: blackgrass; assay: Test Example 4: herbicidal effect by soil treatment (Table 19, symbol J); type: in vivo, blackgrass (Alopecurus myosuroides); conditions: amount of applied herbicide 320 g/ha
Outline: as §2

[16] = system: chickweed; assay: Test Example 4: herbicidal effect by soil treatment (Table 19, symbol P); type: in vivo, common chickweed (Stellaria media); conditions: amount of applied herbicide 320 g/ha
Outline: as §2

[17] = system: Italian ryegrass; assay: Test Example 4: herbicidal effect by soil treatment (Table 19, symbol K); type: in vivo, Italian ryegrass (Lolium multiflorum); conditions: amount of applied herbicide 320 g/ha
Outline: as §2

[18] = system: wild oat; assay: Test Example 4: herbicidal effect by soil treatment (Table 19, symbol I); type: in vivo, wild oat (Avena fatua); conditions: amount of applied herbicide 320 g/ha
Outline: as §2

[19] = system: southern crabgrass; assay: Test Example 5: herbicidal effect by foliage application, plastic box (Table 20, symbol F); type: in vivo, southern crabgrass (Digitaria ciliaris); conditions: foliage application, evaluated three weeks after application
Outline: as §1

[20] = system: redroot pigweed; assay: Test Example 5: herbicidal effect by foliage application, plastic box (Table 20, symbol N); type: in vivo, redroot pigweed (Amaranthus retroflexus); conditions: foliage application, evaluated three weeks after application
Outline: as §1

[21] = system: barnyard grass; assay: Test Example 5: herbicidal effect by foliage application, plastic box (Table 20, symbol H); type: in vivo, barnyard grass (Echinochloa crus-galli); conditions: foliage application, evaluated three weeks after application
Outline: as §1

[22] = system: redroot pigweed; assay: Test Example 4: herbicidal effect by soil treatment (Table 19, symbol N); type: in vivo, redroot pigweed (Amaranthus retroflexus); conditions: amount of applied herbicide 320 g/ha
Outline: as §2

[23] = system: lambsquarters; assay: Test Example 5: herbicidal effect by foliage application, plastic box (Table 20, symbol O); type: in vivo, lambsquarters (Chenopodium album); conditions: foliage application, evaluated three weeks after application
Outline: as §1

[24] = system: Italian ryegrass; assay: Test Example 5: herbicidal effect by foliage application, plastic box (Table 20, symbol K); type: in vivo, Italian ryegrass (Lolium multiflorum); conditions: foliage application, evaluated three weeks after application
Outline: as §1

[25] = system: velvetleaf; assay: Test Example 5: herbicidal effect by foliage application, plastic box (Table 20, symbol M); type: in vivo, velvetleaf (Abutilon theophrasti); conditions: foliage application, evaluated three weeks after application
Outline: as §1

[26] = system: false cleavers; assay: Test Example 4: herbicidal effect by soil treatment (Table 19, symbol Q); type: in vivo, false cleavers (Galium spurium); conditions: amount of applied herbicide 320 g/ha
Outline: as §2

[27] = system: rice flat sedge; assay: Test Example 3: herbicidal effect by foliage application, Wagner pot (Table 18, symbol E); type: in vivo, rice flat sedge (Cyperus iria); conditions: amount of applied herbicide 320 g/ha
Outline: as §3

[28] = system: Chinese sprangletop; assay: Test Example 3: herbicidal effect by foliage application, Wagner pot (Table 18, symbol D); type: in vivo, chinese sprangletop (Leptochloa chinensis); conditions: amount of applied herbicide 320 g/ha
Outline: as §3

With `COc1cc(F)ccc1-c1sc2ccc(C(C)=NOC(C)C)cc2c1-c1c(O)c(C)nn(C)c1=O` [2-195] the “herbicidal effect on J: blackgrass (criteria 0-5)” value ([1]; 320 g/ha) was 4 (Herbicidal rate of 70% or more and less than 90%), the “O: lambsquarters, herbicidal effect rating” value [2] was 3 (Herbicidal rate of 40% or more and less than 70%) and the “herbicidal effect on H: barnyard grass” value [3] was 3 (Herbicidal rate of 40% or more and less than 70%). The “R: persian speedwell, herbicidal effect rating” value [4] was 4 (Herbicidal rate of 70% or more and less than 90%), the “herbicidal effect on P: chickweed (criteria 0-5)” value ([5]; 320 g/ha) was 5 (Herbicidal rate of 90% or more (almost completely withered)) and the “herbicidal effect on L: windgrass (criteria 0-5)” value ([6]; 320 g/ha) was 0 (Herbicidal rate of 5% or less (almost no effect)). For the same molecule, the “herbicidal effect on I: wild oat (criteria 0-5)” value ([7]; 320 g/ha) was 0 (Herbicidal rate of 5% or less (almost no effect)), the “G: green foxtail, herbicidal effect rating” value [8] was 0 (Herbicidal rate of 5% or less (almost no effect)) and the “herbicidal effect on R: persian speedwell (criteria 0-5)” value ([9]; 320 g/ha) was 5 (Herbicidal rate of 90% or more (almost completely withered)). The “M: velvetleaf, herbicidal effect rating” value [10] was 0 (Herbicidal rate of 5% or less (almost no effect)), the “herbicidal effect on G: green foxtail (criteria 0-5)” value ([11]; 320 g/ha) was 0 (Herbicidal rate of 5% or less (almost no effect)) and the “F: southern crabgrass, herbicidal effect rating” value [12] was 0 (Herbicidal rate of 5% or less (almost no effect)). For the same molecule, the “L: windgrass, herbicidal effect rating” value [13] was 0 (Herbicidal rate of 5% or less (almost no effect)), the “H: barnyard grass, herbicidal effect rating” value [14] was 0 (Herbicidal rate of 5% or less (almost no effect)) and the “J: blackgrass, herbicidal effect rating” value [15] was 0 (Herbicidal rate of 5% or less (almost no effect)). The “P: chickweed, herbicidal effect rating” value [16] was 0 (Herbicidal rate of 5% or less (almost no effect)), the “K: Italian ryegrass, herbicidal effect rating” value [17] was 0 (Herbicidal rate of 5% or less (almost no effect)) and the “I: wild oat, herbicidal effect rating” value [18] was 0 (Herbicidal rate of 5% or less (almost no effect)). For the same molecule, the “herbicidal effect on F: southern crabgrass (criteria 0-5)” value ([19]; 320 g/ha) was 2 (Herbicidal rate of 20% or more and less than 40%), the “herbicidal effect on N: redroot pigweed (criteria 0-5)” value ([20]; 320 g/ha) was 3 (Herbicidal rate of 40% or more and less than 70%) and the “herbicidal effect on H: barnyard grass (criteria 0-5)” value ([21]; 320 g/ha) was 2 (Herbicidal rate of 20% or more and less than 40%). For the same molecule, the “N: redroot pigweed, herbicidal effect rating” value [22] was 3 (Herbicidal rate of 40% or more and less than 70%), the “herbicidal effect on O: lambsquarters (criteria 0-5)” value ([23]; 320 g/ha) was 4 (Herbicidal rate of 70% or more and less than 90%) and the “herbicidal effect on K: Italian ryegrass (criteria 0-5)” value ([24]; 320 g/ha) was 0 (Herbicidal rate of 5% or less (almost no effect)). The “herbicidal effect on M: velvetleaf (criteria 0-5)” value ([25]; 320 g/ha) was 2 (Herbicidal rate of 20% or more and less than 40%), the “Q: false cleavers, herbicidal effect rating” value [26] was 0 (Herbicidal rate of 5% or less (almost no effect)) and the “herbicidal effect on E: rice flat sedge” value [27] was 0 (Herbicidal rate of 5% or less (almost no effect)). For the same molecule, the “herbicidal effect on D: Chinese sprangletop” value [28] was 0 (Herbicidal rate of 5% or less (almost no effect)).
For `Cc1nn(C)c(=O)c(-c2c(-c3ccc(OC(F)F)cc3)sc3ccc(F)cc23)c1OC(=O)N1CCOCC1` [2-290], the “J: blackgrass, herbicidal effect (criteria 0-5)” value ([1]; AAH 320 g/ha) was 0 (Herbicidal rate of 5% or less (almost no effect)), the “herbicidal effect on O: lambsquarters” value [2] was 3 (Herbicidal rate of 40% or more and less than 70%) and the “herbicidal effect on H: barnyard grass” value [3] was 4 (Herbicidal rate of 70% or more and less than 90%). The “herbicidal effect on R: persian speedwell” value [4] was 3 (Herbicidal rate of 40% or more and less than 70%), the “P: chickweed, herbicidal effect (criteria 0-5)” value ([5]; AAH 320 g/ha) was 5 (Herbicidal rate of 90% or more (almost completely withered)) and the “L: windgrass, herbicidal effect (criteria 0-5)” value ([6]; AAH 320 g/ha) was 0 (Herbicidal rate of 5% or less (almost no effect)). For the same molecule, the “I: wild oat, herbicidal effect (criteria 0-5)” value ([7]; AAH 320 g/ha) was 0 (Herbicidal rate of 5% or less (almost no effect)), the “herbicidal effect on G: green foxtail” value [8] was 0 (Herbicidal rate of 5% or less (almost no effect)) and the “R: persian speedwell, herbicidal effect (criteria 0-5)” value ([9]; AAH 320 g/ha) was 5 (Herbicidal rate of 90% or more (almost completely withered)). For the same molecule, the “herbicidal effect on M: velvetleaf” value [10] was 0 (Herbicidal rate of 5% or less (almost no effect)), the “G: green foxtail, herbicidal effect (criteria 0-5)” value ([11]; AAH 320 g/ha) was 2 (Herbicidal rate of 20% or more and less than 40%) and the “herbicidal effect on F: southern crabgrass” value [12] was 0 (Herbicidal rate of 5% or less (almost no effect)). For the same molecule, the “herbicidal effect on L: windgrass” value [13] was 0 (Herbicidal rate of 5% or less (almost no effect)), the “herbicidal effect on H: barnyard grass” value [14] was 0 (Herbicidal rate of 5% or less (almost no effect)) and the “herbicidal effect on J: blackgrass” value [15] was 0 (Herbicidal rate of 5% or less (almost no effect)). The “herbicidal effect on P: chickweed” value [16] was 0 (Herbicidal rate of 5% or less (almost no effect)), the “herbicidal effect on K: Italian ryegrass” value [17] was 0 (Herbicidal rate of 5% or less (almost no effect)) and the “herbicidal effect on I: wild oat” value [18] was 0 (Herbicidal rate of 5% or less (almost no effect)). The “F: southern crabgrass, herbicidal effect (criteria 0-5)” value ([19]; AAH 320 g/ha) was 0 (Herbicidal rate of 5% or less (almost no effect)), the “N: redroot pigweed, herbicidal effect (criteria 0-5)” value ([20]; AAH 320 g/ha) was 5 (Herbicidal rate of 90% or more (almost completely withered)) and the “H: barnyard grass, herbicidal effect (criteria 0-5)” value ([21]; AAH 320 g/ha) was 2 (Herbicidal rate of 20% or more and less than 40%). For the same molecule, the “herbicidal effect on N: redroot pigweed” value [22] was 1 (Herbicidal rate of 5% or more and less than 20%), the “O: lambsquarters, herbicidal effect (criteria 0-5)” value ([23]; AAH 320 g/ha) was 5 (Herbicidal rate of 90% or more (almost completely withered)) and the “K: Italian ryegrass, herbicidal effect (criteria 0-5)” value ([24]; AAH 320 g/ha) was 0 (Herbicidal rate of 5% or less (almost no effect)). For the same molecule, the “M: velvetleaf, herbicidal effect (criteria 0-5)” value ([25]; AAH 320 g/ha) was 4 (Herbicidal rate of 70% or more and less than 90%), the “herbicidal effect on Q: false cleavers” value [26] was 0 (Herbicidal rate of 5% or less (almost no effect)) and the “herbicidal effect on E: rice flat sedge” value [27] was 3 (Herbicidal rate of 40% or more and less than 70%). The “herbicidal effect on D: Chinese sprangletop” value [28] was 4 (Herbicidal rate of 70% or more and less than 90%).
